One block for each compound: values may come before it.
Tested on: 945468-187-T-J2-PDC spheroids viability
Test: Anticancer human tumor 945468-187-T-J2-PDC patient-derived rectal carcinoma cell line growth inhibition [PI3K]
Details: spheroids with HUVEC and MSC; for IC50: curve of first compound; for viability, T/C: stronger effect = lower value
In short: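 Stroma-containing spheroids: tumor line, pooled-donor HUVEC, hMSC. Treatments: targeted agents with PI3K inhibitors. Dosing: clinically relevant, half-log spacing, 10 microM ceiling without known Cmax. Read-out: cell viability.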

[1] = second compound 0.00316 µM, first compound 0.0316 µM
[2] = second compound 0.00316 µM, first compound 0.1 µM
[3] = second compound 0.01 µM, first compound 0.0316 µM
[4] = second compound 0.01 µM, first compound 0.1 µM
[5] = second compound 0.0316 µM, first compound 0.0316 µM
[6] = second compound 0.0316 µM, first compound 0.1 µM
[7] = second compound 0.1 µM, first compound 0.0316 µM
[8] = second compound 0.1 µM, first compound 0.1 µM
[9] = second compound 0.316 µM, first compound 0.0316 µM
[10] = second compound 0.316 µM, first compound 0.1 µM
[11] = second compound 1 µM, first compound 0.0316 µM
[12] = second compound 1 µM, first compound 0.1 µM
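Note: spheroids exposed to compounds for seven days before reading.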

IC50 (second compound 0.00316 µM): > 10000 nM
IC50 (second compound 0.01 µM): > 10000 nM
IC50 (second compound 0.0316 µM): > 10000 nM
IC50 (second compound 0.1 µM): > 10000 nM
IC50 (second compound 0.316 µM): < 31.6 nM
IC50 (second compound 1 µM): < 31.6 nM
Compound: C[C@@H](NC(=O)c1ncnc(N)c1Cl)c1ncc(C(=O)Nc2cc(C(F)(F)F)c(Cl)cn2)s1 + COc1c(OCCCN2CCOCC2)ccc2c3n(c(=NC(=O)c4cnc(N)nc4)nc12)CCN3
viability, T/C [1]: 109%
viability, T/C [2]: 115%
viability, T/C (second compound 0.00316 µM, first compound 0.316 µM): 116%
viability, T/C (second compound 0.00316 µM, first compound 1 µM): 113%
viability, T/C (second compound 0.00316 µM, first compound 3.16 µM): 99.3%
viability, T/C (second compound 0.00316 µM, first compound 10 µM): 102%
viability, T/C [3]: 133%
viability, T/C [4]: 119%
viability, T/C (second compound 0.01 µM, first compound 0.316 µM): 126%
viability, T/C (second compound 0.01 µM, first compound 1 µM): 119%
viability, T/C (second compound 0.01 µM, first compound 3.16 µM): 112%
viability, T/C (second compound 0.01 µM, first compound 10 µM): 125%
viability, T/C [5]: 108%
viability, T/C [6]: 94.6%
viability, T/C (second compound 0.0316 µM, first compound 0.316 µM): 111%
viability, T/C (second compound 0.0316 µM, first compound 1 µM): 142%
viability, T/C (second compound 0.0316 µM, first compound 3.16 µM): 96%
viability, T/C (second compound 0.0316 µM, first compound 10 µM): 122%
viability, T/C [7]: 94%
viability, T/C [8]: 102%
viability, T/C (second compound 0.1 µM, first compound 0.316 µM): 94.9%
viability, T/C (second compound 0.1 µM, first compound 1 µM): 95%
viability, T/C (second compound 0.1 µM, first compound 3.16 µM): 92.7%
viability, T/C (second compound 0.1 µM, first compound 10 µM): 92%
viability, T/C [9]: 46%
viability, T/C [10]: 49.3%
viability, T/C (second compound 0.316 µM, first compound 0.316 µM): 50.9%
viability, T/C (second compound 0.316 µM, first compound 1 µM): 57.7%
viability, T/C (second compound 0.316 µM, first compound 3.16 µM): 53.5%
viability, T/C (second compound 0.316 µM, first compound 10 µM): 63.9%
viability, T/C [11]: 24.4%
viability, T/C [12]: 26.1%
viability, T/C (second compound 1 µM, first compound 0.316 µM): 25.6%
viability, T/C (second compound 1 µM, first compound 1 µM): 22%
viability, T/C (second compound 1 µM, first compound 3.16 µM): 23.5%
viability, T/C (second compound 1 µM, first compound 10 µM): 26.8%

IC50 (second compound 0.00316 µM): > 100 nM
IC50 (second compound 0.01 µM): > 100 nM
IC50 (second compound 0.0316 µM): > 100 nM
IC50 (second compound 0.1 µM): > 100 nM
IC50 (second compound 0.316 µM): < 0.316 nM
IC50 (second compound 1 µM): < 0.316 nM
Compound: Cn1ncnc1[C@H]1c2n[nH]c(=O)c3cc(F)cc(c23)N[C@@H]1c1ccc(F)cc1 + COc1c(OCCCN2CCOCC2)ccc2c3n(c(=NC(=O)c4cnc(N)nc4)nc12)CCN3
viability, T/C (second compound 0.00316 µM, first compound 0.000316 µM): 107%
viability, T/C (second compound 0.00316 µM, first compound 0.001 µM): 114%
viability, T/C (second compound 0.00316 µM, first compound 0.00316 µM): 90.7%
viability, T/C (second compound 0.00316 µM, first compound 0.01 µM): 104%
viability, T/C [1]: 97.3%
viability, T/C [2]: 108%
viability, T/C (second compound 0.01 µM, first compound 0.000316 µM): 105%
viability, T/C (second compound 0.01 µM, first compound 0.001 µM): 128%
viability, T/C (second compound 0.01 µM, first compound 0.00316 µM): 101%
viability, T/C (second compound 0.01 µM, first compound 0.01 µM): 84%
viability, T/C [3]: 98.4%
viability, T/C [4]: 96.8%
viability, T/C (second compound 0.0316 µM, first compound 0.000316 µM): 98.7%
viability, T/C (second compound 0.0316 µM, first compound 0.001 µM): 107%
viability, T/C (second compound 0.0316 µM, first compound 0.00316 µM): 85.3%
viability, T/C (second compound 0.0316 µM, first compound 0.01 µM): 104%
viability, T/C [5]: 95.2%
viability, T/C [6]: 88.5%
viability, T/C (second compound 0.1 µM, first compound 0.000316 µM): 93.2%
viability, T/C (second compound 0.1 µM, first compound 0.001 µM): 75.7%
viability, T/C (second compound 0.1 µM, first compound 0.00316 µM): 83.6%
viability, T/C (second compound 0.1 µM, first compound 0.01 µM): 81.3%
viability, T/C [7]: 84.3%
viability, T/C [8]: 88.1%
viability, T/C (second compound 0.316 µM, first compound 0.000316 µM): 34%
viability, T/C (second compound 0.316 µM, first compound 0.001 µM): 35.2%
viability, T/C (second compound 0.316 µM, first compound 0.00316 µM): 43.5%
viability, T/C (second compound 0.316 µM, first compound 0.01 µM): 39.3%
viability, T/C [9]: 39.3%
viability, T/C [10]: 44%
viability, T/C (second compound 1 µM, first compound 0.000316 µM): 21%
viability, T/C (second compound 1 µM, first compound 0.001 µM): 19.7%
viability, T/C (second compound 1 µM, first compound 0.00316 µM): 23.7%
viability, T/C (second compound 1 µM, first compound 0.01 µM): 22.8%
viability, T/C [11]: 20.2%
viability, T/C [12]: 20.8%
